# According to publication PMC5295395, “Inhibition of PlexA1-mediated brain tumor growth and tumor-associated angiogenesis using a transmembrane domain targeting peptide” (Oncotarget, 2016):
# “Also recorded” adds a separate entry of the source.
# B1: Sema3A: PlexA1 ligand (protein, UniProt Q14563 21-771, looked up)
# Semaphorin-3A: NYQNGKNNVPRLKLSYKEMLESNNVITFNGLANSSSYHTFLLDEERSRLYVGAKDHIFSFDLVNIKDFQKIVWPVSYTRRDECKWAGKDILKECANFIKVLKAYNQTHLYACGTGAFHPICTYIEIGHHPEDNIFKLENSHFENGRGKSPYDPKLLTASLLIDGELYSGTAADFMGRDFAIFRTLGHHHPIRTEQHDSRWLNDPKFISAHLISESDNPEDDKVYFFFRENAIDGEHSGKATHARIGQICKNDFGGHRSLVNKWTTFLKARLICSVPGPNGIDTHFDELQDVFLMNFKDPKNPVVYGVFTTSSNIFKGSAVCMYSMSDVRRVFLGPYAHRDGPNYQWVPYQGRVPYPRPGTCPSKTFGGFDSTKDLPDDVITFARSHPAMYNPVFPMNNRPIVIKTDVNYQFTQIVVDRVDAEDGQYDVMFIGTDVGTVLKVVSIPKETWYDLEEVLLEEMTVFREPTAISAMELSTKQQQLYIGSTAGVAQLPLHRCDIYGKACAECCLARDPYCAWDGSACSRYFPTAKRRTRRQDIRNGDPLTHCSDLHHDNHHGHSPEERIIYGVENSSTFLECSPKSQRALVYWQFQRRNEERKEEIRVDDHIIRTDQGLLLRSLQQKDSGNYLCHAVEHGFIQTLLKVTLEVIDTEHLEELLHKDDDGDGSKTKEMSNSMTPSQKVWYRDFMQLINHPNLNTMDEFCEQVWKRDRKQRRQRPGHTPGNSNKWKHLQENKKGRNRRTHEFERAPRSV
# Assays:
# [1] = tested on: U373MG cells; test: 3D migration assay, U373MG spheroids in plasma clot; format: cell-based, human; conditions: U373MG, 100 ng/ml, 24 h plasma clot
# Method: Supplementary Figure S6: The anti-tumor effect of MTP-PlxA1 was verified in U373MG human GBM line. We found […]
# Because PlexA1 is involved in cell migration we also performed a 3D migration assay. U373MG cells were grown as cell aggregates (micro tumor-like spheroids) for 24 h in plasma clot with or without VEGF. […]
# migration that formed cell chains invading the 3D substrate as previously described (12). Strikingly, VEGF-induced cell migration was abolished when MTP-PlexA1 at 10–7 M was added to the cultures. […]
# of PlexA1, this part of the study exemplified the therapeutic potential of MTP-PlexA1 because this peptide was able to block two major mechanisms of tumor progression.
# (Stable Disease) and 62.5% PR (Partial Response).
# (§1) (1 picture or pasted object on this page, not shown here)
# [2] = tested on: HUVEC cells; test: pseudo-tube formation assay, HUVEC on matrigel; format: cell-based, human; conditions: specificity control
# Description: We observed PlexA1 positive blood vessels in the tissue array of GBM samples (Figure 5A). […] To address this possibility we first used a transgenic zebra-fish model tg(kdrl:eGFP) highlighting the endothelial cells. This allowed us to assess the angiogenic activities in vivo by analyzing formation of intersegmental vessels (ISVs) after morpholino-based knockdown of the target.
# Figure 5 MTP-PlexA1 inhibits developmental and tumor-specific PlexA1 pro-angiogenic role (A) Microphotographs illustrating the expression of PlexA1 in vascular-like structures in human glioma tissues. (Scale bar: 40 μm). (B) Morpholino-based PlexA1 knockdown in Zebrafish tg(kdrl:eGFP) line. Representative images of control, Plexin-A1 mismatch and Pexin-A1 knockdown embryos (plxna1MO) are shown 28 hours post fertilization (28hpf). […] (E) Live-monitoring of VEGF-induced HUVEC cell migration assay using the XCelligence system (transwell assay). (F) Microphotographs illustrating the expression of PlexA1 in blood vessels of the chick chorioallontoic membrane (upper left picture). Microphotographs (middle and lower left pictures) and camera lucida drawing (middle and lower right pictures) showing representative fields of observation after 24 h incubation with VEGF (100 ng/ml, +vehicle) or VEGF + MTP-PlexA1 (10^−7 M). The number of VEGF-induced new blood vessels is shown in the graph. […]
# [3] = tested on: NRP1/PlexA1 complexes; test: in situ proximity ligation assay (Duo-link), NRP1/PlexA1 complexes in U373MG cells; format: cell-based, human; conditions: specificity control, MTP-Neu at 10–6 M
# Method: (§2) “Zip sequence” is the positive control of dimerization and “Empty” is the negative control of this bacterial system. (C, D) SPR assay (Biacore) to quantify MTP-PlexA1 interactions with PLexA1, NRP1 and VEGFR2 TMDs. (E) Proximity ligation assay showing that MTP-PlexA1 (10^−7 M) decreases the number of PLexA1-NRP1 interactions (green dots) in U373MG cells (scale bar = 20 μm).
# Additional specificity controls were performed using a mutated version of MTP-PlexA1 (in which 3 glycines of the GxxxGxxxG motif were replaced by 3 valines or MTP-Neu, an anti-breast cancer peptide known to not interact with PlexA1) as described in Supplementary Figure S2. […] Similar results were obtained when cells were exposed to VEGF (39.4% NRP1 and 35.4% PlexA4, Figure 4B).
# Supplementary Figure S2: Specificity controls were performed using a mutated version of MTP-PlexA1 […]
# LVIVAVLIAYKRK). Such mutations have been previously shown to be sufficient to lose activity of NRP1 antagonist membrane domain targeting peptide (Roth et al., 2008 Mol Biol Cell). We also used MTP-Neu, a transmembrane domain targeting peptide known to […]
# M, a concentration previously shown to produce maximal antagonist activity of the peptide. Additionally, we also repeated the in vitro angiogenic assay on matrigel using HUVEC cells. […]
# to MTP-PlexA1. These experiments confirmed the specificity of MTP-PlexA1.
# as §1
# [4] = tested on: PlexA1 TMD; test: bacterial two-hybrid (BACTH) assay of TMD interactions with PlexA1 TMD; format: binding; conditions: Zip sequence positive control, Empty negative control
# Description: To further explore the TMD interactions of PlexA1 we used a bacterial two-hybrid system for a more systematic analysis of TMD interactions. TMD sequences of PlexA1 and various potential interacting partners including NRP1 and all other members of the Plexin-A family were co-expressed in the bacteria to define the hierarchy of the interactions.
# as §2
# [5] = tested on: NRP1; conditions: cited from earlier work
# Description: Glioblastoma (GBM) is a devastating disease with poor prognosis. Highly infiltrative and vascularized, these tumors are composed of multi-clonal cell types with various migratory and proliferative properties, and are genetically very heterogeneous. This obvious cellular heterogeneity largely accounts for the observed resistance to all available therapeutic strategies including, surgery, radiotherapy and chemotherapy. Significant recent progress in targeted therapy comprises blocking various receptor tyrosine kinases (RTK) or inhibiting angiogenesis. However, the clinica ...
# [6] = tested on: p-Akt/Akt; test: western blot of Akt phosphorylation in U373MG cells; format: cell-based, human; conditions: p-Akt/Akt ratio, western blot, Sema3A 100 ng/ml
# Method: (C) Rac-1 activation assay in resting condition and after Sema3A-induced Rac-1 activation in U373 MG cells. (D) Western blot analysis of phosphorylated Akt, total Akt and tubulin in U373MG cells treated with the vehicle (LDS 72 μM), Sema3A (100 ng/ml) or Sema3A + MTP-PlexA1 (10^−7 M). The lower panel is showing the quantification of the p-Akt/Akt ratio in the different conditions. (E) MTP-PlexA1 decreases VEGFR-2 phosphorylation induced by VEGF (100 ng/ml) in HUVEC cells. […]
# in 20 mM sodium acetate (pH 4.5) at a flow rate of 5 μl/ min 10–7 M of MTP-PlexA1 or Vehicle (LDS, 72 µM) during until desired surface densities, measured in response 1 h. Stimulation was done with 100ng/ml Semaphorin 3A units, were reached. […] First antibodies (Rabbit anti-phospho-the elution buffer containing detergent removed non- akt, Rabbit anti-akt, Cell Signaling #4060 and #9272 biotinylated peptides rendering the chip ready for analysis respectively) and mouse anti-tubulin α (Cell Signaling with monomeric biot-MTP-PlexA1. Blank surfaces were #2144) were incubated overnight at 4°C (+ anti-NRP1, used for background corrections. Injections of 30 µl anti-PlexA4 Abcam). […] Images of the immuno-blots cells per well in a 6-well plate and serum starved overnight. were acquired and analyzed thanks to the GENE GNOME Before protein extraction, the cells were treated either with apparatus (Syngene Bio Imaging, UK).
Molecule,interaction with PlexA1 TMD [4],further results
VEGF [reference compound],,tumor cell migration induced by VEGF [1]: induced tumor cell
TLPAIVVIGGVGVLLLLVIVAVLIAYKRK [MTP-PlexA1mut],,effect on number of tube-like structures (HUVEC on matrigel) [2]: not able to decrease tube like structure; also recorded: not able to reduce the number of tube-like structures; disruption of NRP1/PlexA1 dimers [3]: not by mutated MTP-PlexA1mut peptide
"ILITIIAMSALGVLLGAVCGVVLYRKR [NRP1, TMD of Neuropilin-1 in BACTH assay]",significant interaction,
"ILITIIAMSALGVLLGAVCGVVLYRKR [MTP-NRP1, synthetic peptide mimicking the TMD of NRP1]",,NRP1 dimerization antagonism [5]: potent inhibitor by antagonizing dimerization; brain tumor growth [5]: reducing brain tumor growth; tumor cell migration and angiogenesis ([5]; in vitro and in vivo): impaired tumor cell migration and angiogenesis
"TLPAIVSIAAGGSLLLIIVIIVLIAYKRK [Plexin-A2, TMD of Plexin A2 in BACTH assay]",weaker interactions,
"NLELITLCTCVAATLFWLLLTLFIRKK [VEGFR-1, TMD of VEGFR-1 in BACTH assay]",no significant interaction,
"IIPIVAGVVAGIVLIGLALLLIWKLLKR [Integrin Beta-1, TMD of Integrin β-1 in BACTH assay]",no significant interaction,
"SMEIVILVGTGVIAVFFWVLLLLIFCNRRK [VEGFR-3, TMD of VEGFR-3 in BACTH assay]",no significant interaction,
"ISIISAVVGILLVVVLGVVFGILIKRR [HER2, TMD of HER2 in BACTH assay]",no significant interaction,
"TLPAMMGLAAGGGLLLLAITAVLVAYKRK [Plexin-A3, TMD of Plexin A3 in BACTH assay]",weaker interactions,
"NFTGLIAGVVSISTALLLLLGFFLWLKKR [cMET, TMD of c-Met in BACTH assay]",no significant interaction,
"TLPAIVGIGGGGGLLLLVIVAVLIAYKRK [PlexA1, TMD of Plexin A1 in BACTH assay]",homo-dimerization capacity,
"AAQVGLGVGTSLLALGVIIIVLMYRRK [Plexin-B1, TMD of Plexin B1 in BACTH assay]",no significant interaction,
"SLPAIVSIAVAGGLLIIFIVAVLIAYKRK [Plexin-A4, TMD of Plexin A4 in BACTH assay]",positive interactions,
"IIILVGTAVIAMFFWLLLVIILRTVKRK [VEGFR-2, TMD of VEGFR-2 in BACTH assay]",no significant interaction,
"IEITLIIFGVMAGVIGTILLISYGIRRK [GPA, TMD of GpA in BACTH assay]",no significant interaction,
B1,,change of Akt phosphorylation [6]: −33%
